From ChEMBL document CHEMBL1151390, “Microbial Transformations of Natural Antitumor Agents. 20. Glucosylation of Viridi-catumtoxin” (J Nat Prod, 1982)
Calls of active or inactive are those of the source. The calls are words filed in the database; no cut-off is given here.

Test system: P388
Assay: Antitumor activity against mouse P388 cells
Format: functional, cell-based

For `COc1cc(O)c2c(O[C@@H]3O[C@H](CO)[C@@H](O)[C@H](O)[C@H]3O)c3c(c4c2c1[C@@]1(C4)C(C)=CCCC1(C)C)[C@H](O)[C@@]1(O)CC(O)=C(C(N)=O)C(=O)[C@@]1(O)C3=O`, which Activity is on record?
Its Activity is “inactive”.
